Results: patent US20210261512A1, “NOVEL COMPOUNDS” (INFLAZOME LIMITED, priority 2018, published 2021)

How the values were obtained:
NLRP3 [1] = molecular target: T1, NLRP3 (Homo sapiens, UniProt Q96P20); assay: THP-1 cells pyroptosis assay; assay type: cell-based; parameters: Seed THP-1 cells (25,000 cells/well) containing 1.0 μg/ml LPS; host or cells: THP-1; details: LPS 1.0 μg/ml, nigericin 5 μM, resazurin readout, 10 μM top dose (Example 2: top dose of 30 μM)
Outline: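 Pyroptosis induced by 5 μM nigericin (1 h) in LPS-primed (1 μg/ml) THP-1 cells, 25,000/well in serum-free RPMI, after 3 h compound pre-treatment (8 points, 10 μM top unless stated). Surviving cells measured with 100 μM resazurin, Ex 560/Em 590; IC50 via variable-slope 4-parameter regression.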

[2] = PK, intravenous administration; assay type: in vivo; details: rat, plasma, male Sprague Dawley rats, dose about 1 mg/kg; for Vd: read-out: Vdss
Protocol: Pharmacokinetic parameters were determined in male Sprague Dawley rats (Vital River Laboratory Animal Technology Co Ltd, Beijing, China, 6-9 weeks old). Animals were maintained under a 12 h light/dark cycle. Animals had free access to food and water, except that orally dosed animals were food deprived overnight prior to the study.
For intravenous administration, compounds were formulated as a solution (in DMSO:water [10:90] or in DMSO:PBS [10:90]) in 2 mL/kg dosing volume and administered via tail vein. For oral administration, compounds were formulated as a solution (in 0.5% methylcellulose in water) in […] dosing volume and administered orally.
Serial blood samples (about 200 μL) were taken from each animal at each of 8 time-points post dose ([…], 0.25, 0.5, 1, 2, 4, 8 and 24 h). Samples were held on ice for no longer than 30 minutes before centrifugation (5,696 rpm (3,000 g) for 15 minutes) for plasma generation. Plasma was frozen on dry ice prior to bioanalysis. PK parameters were generated from LC-MS/MS data using Phoenix WinNonlin 6.3 software.

NLRP3 [3] = molecular target: T1, NLRP3; assay: Human whole blood IL1β release assay; assay type: cell-based; details: LPS 1 μg/ml, nigericin 10 μM, IL-1β AlphaLisa, 10 μM top dose (Example 2: top dose of 30 μM), read-out: HWB IC50
Outline: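 Healthy-donor heparinised human whole blood with 1 μg/ml LPS, compound (8-point half-log dilution, 10 μM top dose unless stated; 0.1% DMSO vehicle) for 3 h at 37 °C, then nigericin 10 μM final for 1 h. Supernatant IL-1β by AlphaLISA; IC50 from 4-parameter variable-slope fit.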

T1 sequence (Q96P20 whole entry): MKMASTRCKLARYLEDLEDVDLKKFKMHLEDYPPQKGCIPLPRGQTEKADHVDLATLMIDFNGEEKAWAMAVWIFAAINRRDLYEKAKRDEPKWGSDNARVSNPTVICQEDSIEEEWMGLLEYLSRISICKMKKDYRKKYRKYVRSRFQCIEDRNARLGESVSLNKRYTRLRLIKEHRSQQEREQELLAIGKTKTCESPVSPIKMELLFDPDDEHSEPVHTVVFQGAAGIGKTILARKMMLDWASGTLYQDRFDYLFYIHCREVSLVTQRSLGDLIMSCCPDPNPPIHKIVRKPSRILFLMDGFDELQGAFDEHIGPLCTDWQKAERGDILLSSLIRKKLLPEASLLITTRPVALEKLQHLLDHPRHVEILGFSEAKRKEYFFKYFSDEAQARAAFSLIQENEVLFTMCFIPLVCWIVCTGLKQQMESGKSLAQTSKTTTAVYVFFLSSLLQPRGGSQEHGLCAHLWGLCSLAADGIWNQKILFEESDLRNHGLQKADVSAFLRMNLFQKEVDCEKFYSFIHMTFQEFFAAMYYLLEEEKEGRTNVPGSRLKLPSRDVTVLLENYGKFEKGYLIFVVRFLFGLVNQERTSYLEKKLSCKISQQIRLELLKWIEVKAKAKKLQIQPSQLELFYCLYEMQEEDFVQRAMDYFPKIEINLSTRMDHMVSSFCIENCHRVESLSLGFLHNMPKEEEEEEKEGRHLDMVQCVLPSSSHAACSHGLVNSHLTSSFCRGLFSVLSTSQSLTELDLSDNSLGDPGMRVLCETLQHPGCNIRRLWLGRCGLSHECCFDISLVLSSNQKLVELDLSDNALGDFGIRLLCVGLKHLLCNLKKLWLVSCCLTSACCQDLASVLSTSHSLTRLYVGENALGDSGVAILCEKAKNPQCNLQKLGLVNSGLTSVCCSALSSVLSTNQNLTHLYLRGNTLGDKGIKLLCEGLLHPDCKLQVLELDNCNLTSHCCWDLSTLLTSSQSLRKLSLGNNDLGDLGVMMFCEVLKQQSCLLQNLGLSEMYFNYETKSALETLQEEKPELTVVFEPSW

IC50 (NLRP3 [1]) [nM]	AUC [2] [ng·h/mL]	clearance [2] [mL/min/kg]	half-life [2] [min]	Vd [2] [L/kg]	IC50 (NLRP3 [3]) [nM]	SMILES
≤ 5000	364	45.8	24	1.09	≤ 10000	CC(C)N1CC(S(=O)(=O)c2nnc(Nc3c4c(cc5c3CCC5)CCC4)[nH]2)C1 [Example 22, N-(1,2,3,5,6,7-hexahydro-s-indacen-4-yl)-5-((1-isopropylazetidin-3-yl)sulfonyl)-4H-1,2,4-triazol-3-amine]
≤ 5000	545	30.6	72	1.59	≤ 5000	COc1cc(-c2cc(F)cc(C(C)C)c2Nc2nnc(S(=O)(=O)c3ccccc3)[nH]2)ccn1 [Example 45, N-(4-fluoro-2-isopropyl-6-(2-methoxypyridin-4-yl)phenyl)-3-(phenylsulfonyl)-1H-1,2,4-triazol-5-amine]
≤ 1000	273	61.1	78	2.7	≤ 10000	CNCCCS(=O)(=O)c1nnc(Nc2c3c(cc4c2CCC4)CCC3)[nH]1 [Example 54, N-(1,2,3,5,6,7-hexahydro-s-indacen-4-yl)-5-((3-(methylamino)propyl)sulfonyl)-4H-1,2,4-triazol-3-amine]
≤ 500	278	59.9	90	4.61	≤ 1000	CCN(CC)CCNS(=O)(=O)c1nnc(Nc2c3c(cc4c2CCC4)CCC3)[nH]1 [Example 81, N-(2-(diethylamino)ethyl)-5-((1,2,3,5,6,7-hexahydro-s-indacen-4-yl)amino)-4H-1,2,4-triazole-3-sulfonamide]
≤ 1000					≤ 5000	O=S(=O)(c1nnc(Nc2c3c(cc4c2CCC4)CCC3)[nH]1)N1CC2(CCC(O)C2)C1 (centres unmarked) [Example 346, 2-((5-((1,2,3,5,6,7-hexahydro-s-indacen-4-yl)amino)-4H-1,2,4-triazol-3-yl)sulfonyl)-2-azaspiro[3.4]octan-6-ol]
≤ 500					≤ 5000	O=S(=O)(c1nnc(Nc2c3c(cc4c2CCC4)CCC3)[nH]1)N1CCC2(CCOC2)CC1 [Example 360, 5-((2-oxa-8-azaspiro[4.5]decan-8-yl)sulfonyl)-N-(1,2,3,5,6,7-hexahydro-s-indacen-4-yl)-4H-1,2,4-triazol-3-amine]
≤ 500					≤ 5000	Cc1cc2c(c(Nc3nnc(S(=O)(=O)c4ccccc4)[nH]3)c1-c1ccnc(OC3CCOCC3)c1)CCC2 [Example 370, N-(6-methyl-5-(2-((tetrahydro-2H-pyran-4-yl)oxy)pyridin-4-yl)-2,3-dihydro-1H-inden-4-yl)-5-(phenylsulfonyl)-4H-1,2,4-triazol-3-amine]

Continued, molecule first:

SMILES	IC50 (NLRP3 [1]) [nM]	AUC [2] [ng·h/mL]	clearance [2] [mL/min/kg]	half-life [2] [min]	Vd [2] [L/kg]	IC50 (NLRP3 [3]) [nM]
CCN(CC)CCCS(=O)(=O)c1nnc(Nc2c3c(cc4c2CCC4)CCC3)[nH]1 [Example 24, 5-((3-(diethylamino)propyl)sulfonyl)-N-(1,2,3,5,6,7-hexahydro-s-indacen-4-yl)-4H-1,2,4-triazol-3-amine]	≤ 500	173	96.5	48	5.26	≤ 1000
CN(C)CCCS(=O)(=O)c1nnc(Nc2c3c(cc4c2CCC4)CCC3)[nH]1 [Example 48, 5-((3-(Dimethylamino)propyl)sulfonyl)-N-(1,2,3,5,6,7-hexahydro-s-indacen-4-yl)-4H-1,2,4-triazol-3-amine]	≤ 500	196	85	48	3.69	≤ 500
O=S(=O)(CCCN1CCCC1)c1nnc(Nc2c3c(cc4c2CCC4)CCC3)[nH]1 [Example 49, N-(1,2,3,5,6,7-hexahydro-s-indacen-4-yl)-5-((3-(pyrrolidin-1-yl)propyl)sulfonyl)-4H-1,2,4-triazol-3-amine]	≤ 500	168	98.9	126	8.08	≤ 1000
CN1CCCC1CCS(=O)(=O)c1nnc(Nc2c3c(cc4c2CCC4)CCC3)[nH]1 (centres unmarked) [Example 60, N-(1,2,3,5,6,7-hexahydro-s-indacen-4-yl)-3-((2-(1-methylpyrrolidin-2-yl)ethyl)sulfonyl)-1H-1,2,4-triazol-5-amine]	≤ 1000	278	60	60	3.24	≤ 5000
COc1cc(-c2cc(F)cc(C(C)C)c2Oc2nnc(S(=O)(=O)N3CCC(CN(C)C)C3)[nH]2)ccn1 (centres unmarked) [Example 69, 1-(1-((5-(4-fluoro-2-isopropyl-6-(2-methoxypyridin-4-yl)phenoxy)-4H-1,2,4-triazol-3-yl)sulfonyl)pyrrolidin-3-yl)-N,N-dimethylmethanamine]	≤ 1000	267	65.5	42.6	1.29	≤ 1000
CS(=O)(=O)c1nnc(Nc2c3c(cc4c2CCC4)CCC3)[nH]1 [Example 75, N-(1,2,3,5,6,7-hexahydro-s-indacen-4-yl)-5-(methylsulfonyl)-4H-1,2,4-triazol-3-amine]	≤ 5000	1000	16.7	30	0.56	≤ 10000
CCN(CC)CCCS(=O)(=O)c1nnc(Nc2c(-c3ccnc(OC)c3)ccc3c2CCC3)[nH]1 [Example 76, 5-((3-(diethylamino)propyl)sulfonyl)-N-(5-(2-methoxypyridin-4-yl)-2,3-dihydro-1H-inden-4-yl)-4H-1,2,4-triazol-3-amine]	≤ 500	210	79.4	54	2.48	≤ 5000
CCN(CC)CCCS(=O)(=O)c1nnc(Nc2c(-c3ccnc(OC)c3)cc(F)cc2C(C)C)[nH]1 [Example 79, 5-((3-(diethylamino)propyl)sulfonyl)-N-(4-fluoro-2-isopropyl-6-(2-methoxypyridin-4-yl)phenyl)-4H-1,2,4-triazol-3-amine]	≤ 500	277	60	154	5.03	≤ 5000
COC(C)(C)[C@H]1CCN(S(=O)(=O)c2nnc(Nc3c4c(cc5c3CCC5)CCC4)[nH]2)C1 [Example 347, (S)-N-(1,2,3,5,6,7-hexahydro-s-indacen-4-yl)-5-((3-(2-methoxypropan-2-yl)pyrrolidin-1-yl)sulfonyl)-4H-1,2,4-triazol-3-amine]	≤ 1000					≤ 10000
CN(C)CCn1ccc(S(=O)(=O)c2nnc(Nc3c4c(cc5c3CCC5)CCC4)[nH]2)n1 [Example 349, 5-((1-(2-(dimethylamino)ethyl)-1H-pyrazol-3-yl)sulfonyl)-N-(1,2,3,5,6,7-hexahydro-s-indacen-4-yl)-4H-1,2,4-triazol-3-amine]	≤ 500					≤ 5000
CC(O)Cn1ccc(S(=O)(=O)c2nnc(Nc3c4c(cc5c3CCC5)CCC4)[nH]2)n1 (centres unmarked) [Example 352, 1-(3-((5-((1,2,3,5,6,7-hexahydro-s-indacen-4-yl)amino)-4H-1,2,4-triazol-3-yl)sulfonyl)-1H-pyrazol-1-yl)propan-2-ol]	≤ 500					≤ 10000
NS(=O)(=O)c1ccc(S(=O)(=O)c2nnc(Nc3c4c(cc5c3CCC5)CCC4)[nH]2)cc1 [Example 366, 4-((5-((1,2,3,5,6,7-hexahydro-s-indacen-4-yl)amino)-4H-1,2,4-triazol-3-yl)sulfonyl)benzenesulfonamide]	≤ 500					≤ 10000
